Test results reported in PMC12049818, “Identification of NUV-244 as a PNPLA3 I148M degrading small molecule” (iScience, 2025).

Target: T1, PNPLA3 I148M-tagRFP (Homo sapiens, UniProt Q9NST1, I148M)
T1 construct: host or cells: Huh7
T1 sequence (Q9NST1 1-481 I148M): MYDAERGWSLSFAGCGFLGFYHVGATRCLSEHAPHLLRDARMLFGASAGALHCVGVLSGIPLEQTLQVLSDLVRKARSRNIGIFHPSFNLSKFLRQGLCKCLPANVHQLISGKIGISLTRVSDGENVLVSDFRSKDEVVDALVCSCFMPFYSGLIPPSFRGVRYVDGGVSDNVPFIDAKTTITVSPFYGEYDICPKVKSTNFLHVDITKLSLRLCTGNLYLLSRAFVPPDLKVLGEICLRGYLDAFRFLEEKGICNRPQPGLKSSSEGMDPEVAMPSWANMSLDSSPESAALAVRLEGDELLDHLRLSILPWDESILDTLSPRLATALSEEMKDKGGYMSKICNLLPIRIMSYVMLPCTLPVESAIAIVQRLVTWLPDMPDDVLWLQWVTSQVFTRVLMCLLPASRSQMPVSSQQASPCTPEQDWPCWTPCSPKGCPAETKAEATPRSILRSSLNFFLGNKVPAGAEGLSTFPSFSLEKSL
Assay: Time-lapse imaging of PNPLA3 I148M-tagRFP on lipid droplets in Huh7 cells
Format: cell-based
Method: To evaluate the kinetics of NUV-244 mediated reduction and degradation of PNPLA3 I148M-tagRFP, we performed time-lapse studies to follow PNPLA3 I148M-tagRFP over time (Figures 5A and 5B). 1μM or 5μM NUV-244 leads to rapid onset of reduction of PNPLA3 I148M-tagRFP on lipid droplets with half maximum effect reached after approximately 2h. To evaluate if PNPLA3 I148M-tagRFP degradation is 26S proteasome dependent, 1μM Bortezomib was co-incubated with NUV-244. Proteasome inhibition prevents PNPLA3 I148M-tagRFP reduction from lipid droplets (Figures 5A and 5B). […] A recent paper identified the E3 ligase responsible for the turnover of endogenous PNPLA3, the ER associated E3 ligase BFAR.[18]
Huh7 cells expressing PNPLA3 I148M-tagRFP were seeded at 4000 cells/well in 30 μL media in 384-well imaging plates (Revvity, PhenoPlate) and stored in a 37°C incubator with 5% CO2 and 95% humidity overnight. Cells were then incubated with Bodipy diluted in growth medium (38nM final concentration) for 1h at 37°C with 5% CO2 and 95% humidity. Cells were treated with DMSO control, 1 μM or 5 μM NUV-244, with or without 1 μM Bortezomib or 5 μM MLN7243. Cells were imaged every 15 minutes over a 20-hour period using an Opera Phenix confocal spinning disc microscope system (Revvity) with a 20x water objective at 561 nm (tagRFP) and 488 nm (BODIPY). Images were analyzed using Harmony software. PNPLA3 I148M-tagRFP intensity on lipid droplets was quantified and compared between treatments.

Row | effect of co-treatment on NUV-244 induced decrease of PNPLA3 I148M-tagRFP on lipid droplets (1μM co-treatment with 1μM or 5μM NUV-244) | effect of co-treatment on NUV-244 induced decrease of PNPLA3 I148M-tagRFP on lipid droplets (5μM co-treatment with 1μM or 5μM NUV-244) | SMILES
1 | rescue of degradation |  | CC(C)C[C@H](NC(=O)[C@H](Cc1ccccc1)NC(=O)c1cnccn1)B(O)O [Bortezomib]
2 |  | rescue of degradation | NS(=O)(=O)OC[C@H]1C[C@@H](Nc2ccnc3cc(-c4cccc(SC(F)(F)F)c4)nn23)[C@H](O)[C@@H]1O [MLN7243]
